Data on 12 compounds can be found in patent publication US5536737A, “Compound having prolyl endopeptidase inhibitory activity and pharmaceutical use thereof” (Japan Tobacco Inc., priority 1992, dated 1996).

Like-named read-outs stand apart in the source and are kept apart here.

Common to all, as to format: biochemical
One assay deals with T1, prolyl endopeptidase (Rattus norvegicus, UniProt O70196).
T1 construct: prolyl endopeptidase extracted from rat brain; from tissue; host or cells: rat brain
T1 sequence (O70196 1-710): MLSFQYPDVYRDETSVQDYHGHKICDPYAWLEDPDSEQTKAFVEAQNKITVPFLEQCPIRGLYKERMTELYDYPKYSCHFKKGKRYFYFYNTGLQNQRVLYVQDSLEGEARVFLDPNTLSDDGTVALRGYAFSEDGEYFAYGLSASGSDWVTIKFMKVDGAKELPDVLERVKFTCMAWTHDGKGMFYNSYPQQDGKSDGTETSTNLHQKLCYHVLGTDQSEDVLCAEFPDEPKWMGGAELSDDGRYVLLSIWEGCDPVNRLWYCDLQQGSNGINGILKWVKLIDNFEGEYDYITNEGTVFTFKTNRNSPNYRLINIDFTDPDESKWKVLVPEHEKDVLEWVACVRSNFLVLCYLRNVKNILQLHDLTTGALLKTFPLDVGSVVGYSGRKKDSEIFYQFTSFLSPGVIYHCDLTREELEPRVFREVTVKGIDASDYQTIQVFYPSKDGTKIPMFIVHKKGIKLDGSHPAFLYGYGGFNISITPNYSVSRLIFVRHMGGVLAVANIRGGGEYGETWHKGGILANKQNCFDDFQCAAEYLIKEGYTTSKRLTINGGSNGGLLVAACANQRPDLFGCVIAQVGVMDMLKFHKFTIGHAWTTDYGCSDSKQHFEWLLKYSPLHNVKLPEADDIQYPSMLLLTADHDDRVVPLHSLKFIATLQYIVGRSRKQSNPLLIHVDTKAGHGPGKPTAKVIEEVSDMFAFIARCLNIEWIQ
Description: Prolyl endopeptidase-inhibitory activity. The settings on record: for inhibition at 0.1 µM: read-out: inhibition of prolyl endopeptidase. The procedure:
Prolyl endopeptidase-inhibitory activity
A mixture of a 0.1M potassium-sodium phosphate buffer (pH 7.0, 2675 μl ), a solution of the compound of the present invention in a 0.1M potassium-sodium phosphate buffer (pH 7.0, 100 μl ) and a solution of prolyl endopeptidase extracted from rat brain in a 25 mM sodium phosphate buffer (100 μl ) [123 unit/1, pH 6.8, containing 1 mM dithiothreitol and 0.5 mM EDTA, prepared by the method described in J. Neurochem., 35, 527 (1980)] was preincubated at 30° C. for 30 minutes. Thereto was added a 0.2 mM solution of 7-(N-succinyl-glycyl-prolyl)-4methylcoumarinamide (Peptide Institute, INC.) in a 0.1M potassium-sodium phosphate buffer (pH 7.0, 125 μl), and the mixture was incubated at 30° C. for 1 hour. The reaction mixture was immersed in ice (0° C.) to terminate the reaction, and the fluorescence (a1) was determined ten minutes later (excitation at 370 nm and emission at 440 nm). Concurrently, an experiment wherein, in the above system, the prolyl endopeptidase solution was substituted for a 25 mM sodium phosphate buffer (pH 6.8, containing 1 mM dithiothreitol and 0.5 mM EDTA) and an experiment wherein the solution of the compound of the present invention was substituted for a 0.1M potassium-sodium phosphate buffer (pH 7.0) were conducted. Each fluorescence (a2 and a3) was determined [See Tanpakushitsu Kakusan Koso, 29, 127 (1984)]. The prolyl endopeptidase inhibition was calculated by the following formula, and IC50, a concentration necessary for 50% inhibition, was estimated by using a semilogarithmic graph paper. [formula]

Another assay deals with T2, trypsin (Bos taurus, UniProt P00760).
T2 construct: purchased Sigma; host or cells: bovine pancreas
T2 sequence (P00760 24-246): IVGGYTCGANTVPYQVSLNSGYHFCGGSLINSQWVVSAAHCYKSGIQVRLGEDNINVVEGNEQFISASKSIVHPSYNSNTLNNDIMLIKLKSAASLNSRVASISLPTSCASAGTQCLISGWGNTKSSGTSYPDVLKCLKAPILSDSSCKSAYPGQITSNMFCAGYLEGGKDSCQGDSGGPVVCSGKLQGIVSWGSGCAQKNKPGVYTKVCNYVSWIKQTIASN
As to the kind of experiment: Trypsin-inhibitory activity. The settings on record: concentration 0.1 μM; bovine pancreas, pH 8.0. As for the experimental part: (§1) Inhibitory activity against various proteases
(§2) The compound of the present invention having predetermined concentrations was tested for the specificity of the inhibitory activity against various proteases according to a known test method.
(§3) The methods for the determination of the inhibitory activity against various proteases other than prolyl endopeptidase and the method for calculating the inhibition are as follows.
Determination of trypsin-inhibitory activity
In the present invention, a 50 mM Tris-HCI buffer (pH 8.0) was used as a buffer for measurement.
To a mixture of the above-mentioned buffer (850 μl ), a solution of the compound of the present invention in the same buffer (50 μl ) and a 0.02 μM solution of trypsin (derived from bovine pancreas, Sigma) in the same buffer (50 μl ) was added a 200 μM solution of 7-(prolyl-phenylaranyl-arginyl)-4methylcoumarinamide (Peptide Institute, Inc.) in the same buffer (50 μl), and the mixture was incubated at 30° C. for 1 hour. The reaction mixture was immersed in ice (0° C.) to terminate the reaction, and the fluorescence (b1) was determined 1 hour later (excitation at 370 nm and emission at 440 nm). Concurrently, an experiment wherein, in the system above, the trypsin solution was substituted for a buffer and an experiment wherein the solution of the compound of the present invention was substituted for said buffer were conducted. Each fluorescence (b2 and b3) was determined.
(§4) Using the fluorescence x1, x2 and x3 wherein x is b, c, d, e or f, measured in the above-mentioned manner, the inhibition against various proteases was calculated by the following formula: [formula]

Another assay deals with T3, chymotrypsin (Bos taurus, UniProt P00766).
T3 construct: purchased Sigma; host or cells: bovine pancreas
Description: Chymotrypsin-inhibitory activity. The note with it: concentration 0.1 μM; bovine pancreas, pH 8.0. As for the experimental part: as §1, §2, §3
Determination of chymotrypsin-inhibitory activity
In completely the same manner as above, respective fluorescence (c1, c2 and c3) was determined using a 50 mM Tris-HCl buffer (pH 8.0) as a buffer for determination, a 0.2 μM solution of chymotrypsin (derived from bovine pancreas, Sigma) in the same buffer as an enzyme solution, and a 200 μM solution of 7-(N-succinyl-leucyl-leucyl-varyl-tyrosyl)-4-methylcoumarinamide (Peptide Institute, Inc.) in the same buffer as a substrate solution.
as §4

For the next assay, the system named is leucine aminopeptidase. As to the kind of experiment: Leucine aminopeptidase-inhibitory activity. The note with it: concentration 0.1 μM; swine kidney, pH 8.0. The procedure:
as §1, §2, §3
Determination of leucine aminopeptidase-inhibitory activity
In completely the same manner as above, respective fluorescence (d1, d2 and d3) was determined using a 50 mM Tris-HCl buffer (pH 8.0) as a buffer for determination, a 0.2 μM solution of leucine aminopeptidase (derived from swine kidney, Sigma) in the same buffer as an enzyme solution and a 200 μM solution of 7-leucyl-4-methyl-coumarinamide (Peptide Institute, Inc.) in the same buffer as a substrate solution.
as §4

In another assay the target is T4, elastase (Sus scrofa, UniProt P00772).
T4 construct: purchased Sigma; host or cells: swine pancreas
T4 sequence (P00772 27-266): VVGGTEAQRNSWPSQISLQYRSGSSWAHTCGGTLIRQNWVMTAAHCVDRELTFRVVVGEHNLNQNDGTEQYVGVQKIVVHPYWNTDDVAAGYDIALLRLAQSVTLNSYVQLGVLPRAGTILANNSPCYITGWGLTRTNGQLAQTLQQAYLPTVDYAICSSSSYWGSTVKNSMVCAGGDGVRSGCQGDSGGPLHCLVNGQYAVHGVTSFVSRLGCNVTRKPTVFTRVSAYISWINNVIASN
As to the kind of experiment: Elastase-inhibitory activity. The settings on record: concentration 0.1 μM; swine pancreas, pH 8.5. As for the experimental part: as §1, §2, §3
Determination of elastase-inhibitory activity
In completely the same manner as above, respective fluorescence (e1, e2 and e3) was determined using a 1 mM Tris-HCl buffer (pH 8.5) as a buffer for determination, a 0.2 μM solution of elastase (derived from swine pancreas, Sigma) in the same buffer as an enzyme solution and a 200 μM solution of 7-(N-succinyl-aranyl-prolyl-aranyl)-4-methylcoumarinamide (Peptide Institute, Inc.) in the same buffer as a substrate solution.
as §4

For a further assay, the target named is T5, cathepsin B (Bos taurus, UniProt P07688).
T5 construct: purchased Sigma; host or cells: bovine spleen
Description: Cathepsin B-inhibitory activity. The note with it: concentration 0.1 μM; bovine spleen, pH 6.0. The procedure: as §1, §2, §3
Determination of cathepsin B-inhibitory activity
In completely the same manner as above, respective fluorescence (f1, f2 and f3) was determined using a 100 mM sodium phosphate buffer (pH 6.0; containing 1.33 mM EDTA Na2) as a buffer for determination, a 0.02 μM solution of cathepsin B (derived from bovine spleen, Sigma) in the same buffer as an enzyme solution and a 200 μM solution of 7-(N-benzyloxy-carbonyl-phenylaranyl-arginyl)-4-methylcouma-rinamide (Peptid Institute, Inc.) in the same buffer as a substrate solution.
as §4

Usually IC50 stands for the concentration at which inhibition is half-maximal. Lower therefore signals greater potency in that assay. Usually inhibition stands for the share of the control response that was lost under treatment.

With `CC(=O)OCC(=O)[C@@H]1CCCN1C(=O)[C@@H]1CCCN1C(=O)NCc1ccccc1` [Compound 1, (S)-2-[[(S)-2-(Acetoxyacetyl)-1-pyrrolidinyl]carbonyl]-N-(phenylmethyl)-1-pyrrolidinecarboxamide], on prolyl endopeptidase, the IC50 amounted to 0.1 nM. In addition, the inhibition at 0.1 µM at prolyl endopeptidase was 100%; against trypsin it was 0%; against chymotrypsin, 0%; against elastase, 0%; against cathepsin B, 0%. The same compound showed an inhibition of leucine aminopeptidase in the assay on leucine aminopeptidase of 0%.
For the compound `O=C(CO)[C@@H]1CCCN1C(=O)[C@@H]1CCCN1C(=O)NCc1ccccc1` [Compound 2, (S)-2-[[(S)-2-(Hydroxyacetyl)-1-pyrrolidinyl]carbonyl]-N-(phenylmethyl)-1-pyrrolidinecarboxamide], the inhibition at 0.1 µM at prolyl endopeptidase (concentration 0.1 μM) is 98%; on trypsin it was 0%; against chymotrypsin, 0%; against elastase, 0%; at cathepsin B, 0%. The inhibition of leucine aminopeptidase in the assay on leucine aminopeptidase was determined as 0%.
On prolyl endopeptidase, `O=C(OCC(=O)[C@@H]1CCCN1C(=O)[C@@H]1CCCN1C(=O)NCc1ccccc1)c1ccccc1` [Compound 3] returned an IC50 of 0.1 nM. The inhibition at 0.1 µM at prolyl endopeptidase was found to be 98%; against trypsin, 0%; at chymotrypsin, 0%; on elastase it was 0%; against cathepsin B, 0%. For the same compound, the inhibition of leucine aminopeptidase with leucine aminopeptidase was 0%.
In the case of `CC(C)(C)C(=O)OCC(=O)[C@@H]1CCCN1C(=O)[C@@H]1CCCN1C(=O)NCc1ccccc1` [Compound 4, (S)-N-(Phenylmethyl)-2-[[(S)-2-(pivaloyloxyacetyl)-1-pyrrolidinyl]carbonyl]-1-pyrrolidinecarboxamide], the IC50 at prolyl endopeptidase stood at 1 nM. Also, the inhibition at 0.1 µM is 97% on prolyl endopeptidase; 0% at trypsin; 0% at chymotrypsin; 0% at elastase; 0% against cathepsin B. Besides, the inhibition of leucine aminopeptidase in the assay with leucine aminopeptidase turned out to be 0%.
`O=C(CO)[C@@H]1CCCN1C(=O)[C@@H]1CCCN1C(=O)NCCc1ccccc1` [Compound 5, (S)-2-[[(S)-2-(Hydroxyacetyl)-1-pyrrolidinyl]carbonyl]-N-(2-phenylethyl)-1-pyrrolidinecarboxamide] yielded an IC50 against prolyl endopeptidase of 0.3 nM. The inhibition at 0.1 µM came out at 100% at prolyl endopeptidase; 0% at trypsin; 0% against chymotrypsin; 0% at elastase; 0% against cathepsin B. For the same compound, in the assay on leucine aminopeptidase, the inhibition of leucine aminopeptidase was determined as 0%.
For `COc1ccc(OCC(=O)N2CCC[C@H]2C(=O)N2CCC[C@H]2C(=O)CO)cc1` [Compound 9, (S)-2-[[(S)-2-(Hydroxyacetyl)-1-pyrrolidinyl]carbonyl]-1-[(4methoxyphenyl)oxyacetyl]pyrrolidine], half-maximal inhibition against prolyl endopeptidase (IC50) required 2 nM.
Same read-out and setting: the value for `COc1ccc(OCC(=O)N2CCC[C@H]2C(=O)N2CCC[C@H]2C(=O)COC(=O)C(C)(C)C)cc1` [Compound 10, (S)-1-[(4-Methoxyphenyl)oxyacetyl]-2-[[(S)-2-(pivaloyloxyacetyl)1-pyrrolidinyl]carbonyl]pyrrolidine] was 10 nM.
Same read-out and setting: the value for `CCCCCCCC(=O)N1CCC[C@H]1C(=O)N1CCC[C@H]1C(=O)CO` [Compound 11, (S)-2-[[(S)-2-(Hydroxyacetyl)-1-pyrrolidinyl]carbonyl]-1-octanoylpyrrolidine] was 0.4 nM; that for `CCCCCCCC(=O)N1CCC[C@H]1C(=O)N1CCC[C@H]1C(=O)COC(C)=O` [Compound 12, (S)-2-[[(S)-2-(Acetoxyacetyl)-1-pyrrolidinyl]carbonyl]-1-octanoylpyrrolidine] was 2 nM.
The same measure, in the same setting: the value for `CCCCCCCC(=O)N1CCC[C@H]1C(=O)N1CCC[C@H]1C(=O)COC(=O)c1ccccc1` [Compound 13, (S)-2-[[(S)-2-(Benzoyloxyacetyl)-1-pyrrolidinyl]carbonyl]-1-octanoylpyrrolidine] was 8 nM.
Compound `O=C(CO)[C@@H]1CCCN1C(=O)[C@@H]1CSCN1C(=O)OCc1ccccc1` [Compound 14, (R)-4-[[(S)-2-(Hydroxyacetyl)-1-pyrrolidinyl]carbonyl]-3(phenylmethyloxycarbonyl)thiazolidine] came in with an IC50 against prolyl endopeptidase of 1 nM.
The same measure, in the same setting: the value for `CC(=O)OCC(=O)[C@@H]1CCCN1C(=O)[C@@H]1CCCN1C(=O)NCc1ccc(Cl)cc1` [Compound 15, (S)-2-[[(S)-2-(Acetoxyacetyl)-1-pyrrolidinyl]carbonyl]-N(4-chlorophenylmethyl)-1-pyrrolidinecarboxamide] was 2 nM.
